Measured values taken from patent US20110166112A1, “METHOD FOR STIMULATING PLATELET PRODUCTION” (Eisai, Inc., priority 2009, published 2011).

System: subjects with chronic ITP
Test: Combined 28-day and 6-month rollover studies of E5501: safety (TEAEs, serious TEAEs, thromboembolic events, neoplasms, liver toxicity, discontinuations)
Assay type: in vivo, human
Text: Primary Endpoint: The primary endpoint was to assess the safety and tolerability to E5501, including AEs and clinical laboratory parameters, over the 6 additional months of treatment.
In this way, safety data reflect each subject's complete duration of exposure to E5501 starting with lead-in the previous study and continuing into the current study.
Following Protocol Amendment 4, the current study contained a flexible dose regimen; therefore, this study was considered to have an open-label, uncontrolled, single-arm design. […] This was the method used to assess safety. • Grouping method B was based on both treatment received and day 28 platelet response to study drug in Study the previous study. This was the method used for the analysis of efficacy for the FAS and the SE population.
Overall Adverse Events. […] The primary focus is on summary statistics for the entire safety population and provides an overall safety profile for E5501. The summary statistics for each group, e.g., lower ⅓, middle ⅓ and upper ⅓ average daily dose levels, is secondary and provides further safety information across the 3 dose levels.

[1] = Middle ⅓ dose (≧8.85-<13.5 mg), N=22
[2] = Safety Population, Middle ⅓ Mean Daily Dose Level (≧8.85-<13.5 mg)
[3] = Upper ⅓ dose (≧13.5-≦25.7 mg), N=20
[4] = combined studies, E5501-treated subjects overall
[5] = one subject, 5 mg/day, approximately 21 days after initiation, grade 2
[6] = one subject, 20 mg/day, approximately 164 days after initiation, grade 3

O=C(Nc1nc(-c2cc(Cl)cs2)c(N2CCN(C3CCCCC3)CC2)s1)c1cnc(N2CCC(C(=O)O)CC2)c(Cl)c1 [E5501, 1-(3-chloro-5-{[4-(4-chlorothiophen-2-yl)-5-(4-cyclohexylpiperazin-1-yl)thiazol-2-yl]carbamoyl}pyridine-2-yl)piperidine-4-carboxylic acid]
Vomiting, % of subjects [1]: (9.1) %
Vomiting, n of subjects [1]: 2
Withdrawal due to TEAE, % of subjects [1]: (9.1) %
Withdrawal due to TEAE, n of subjects [1]: 2
Discontinuation in 501-CL-003, PC increase to ≧500,000/mm^3 (Safety Population, Lower ⅓ Mean Daily Dose Level (2.5-<8.85 mg)): 0 n
Discontinuation in 501-CL-003, PC increase to ≧500,000/mm^3 [2]: 0 n
Discontinuation in 501-CL-004, PC increase to ≧500,000/mm^3 [2]: 0 n
Discontinuation in 501-CL-003, Adverse Event or SAE (Safety Population, Upper ⅓ Mean Daily Dose Level (≧13.5-≦25.7 mg)): 0 n
Abdominal pain upper, % of subjects (Total E5501, N=64): (4.7) %
Abdominal pain upper, n of subjects (Total E5501, N=64): 3
Any TEAE, % of subjects (Total E5501, N=64): (96.9) %
Any TEAE, n of subjects (Total E5501, N=64): 62
Arthralgia, % of subjects (Total E5501, N=64): (14.1) %
Arthralgia, n of subjects (Total E5501, N=64): 9
Asthenia, % of subjects (Total E5501, N=64): (6.3) %
Asthenia, n of subjects (Total E5501, N=64): 4
Back pain, % of subjects (Total E5501, N=64): (9.4) %
Back pain, n of subjects (Total E5501, N=64): 6
Constipation, % of subjects (Total E5501, N=64): (4.7) %
Constipation, n of subjects (Total E5501, N=64): 3
Contusion, % of subjects (Total E5501, N=64): (18.8) %
Contusion, n of subjects (Total E5501, N=64): 12
Cough, % of subjects (Total E5501, N=64): (4.7) %
Cough, n of subjects (Total E5501, N=64): 3
Deaths, n of subjects (Total E5501, N=64): 0
Diarrhoea, % of subjects (Total E5501, N=64): (14.1) %
Diarrhoea, n of subjects (Total E5501, N=64): 9
Dizziness, % of subjects (Total E5501, N=64): (7.8) %
Dizziness, n of subjects (Total E5501, N=64): 5
Dose interruption due to TEAE, % of subjects (Total E5501, N=64): (12.5) %
Dose interruption due to TEAE, n of subjects (Total E5501, N=64): 8
Dyspnoea, % of subjects (Total E5501, N=64): (9.4) %
Dyspnoea, n of subjects (Total E5501, N=64): 6
Ecchymosis, % of subjects (Total E5501, N=64): (6.3) %
Ecchymosis, n of subjects (Total E5501, N=64): 4
Epistaxis, % of subjects (Total E5501, N=64): (23.4) %
Epistaxis, n of subjects (Total E5501, N=64): 15
Fatigue, % of subjects (Total E5501, N=64): (34.4) %
Fatigue, n of subjects (Total E5501, N=64): 22
Gingival bleeding, % of subjects (Total E5501, N=64): (10.9) %
Gingival bleeding, n of subjects (Total E5501, N=64): 7
Headache, % of subjects (Total E5501, N=64): (32.8) %
Headache, n of subjects (Total E5501, N=64): 21
Insomnia, % of subjects (Total E5501, N=64): (7.8) %
Insomnia, n of subjects (Total E5501, N=64): 5
Migraine, % of subjects (Total E5501, N=64): (4.7) %
Migraine, n of subjects (Total E5501, N=64): 3
Mouth haemorrhage, % of subjects (Total E5501, N=64): (3.1) %
Mouth haemorrhage, n of subjects (Total E5501, N=64): 2
Nausea, % of subjects (Total E5501, N=64): (9.4) %
Nausea, n of subjects (Total E5501, N=64): 6
Pain in extremity, % of subjects (Total E5501, N=64): (9.4) %
Pain in extremity, n of subjects (Total E5501, N=64): 6
Petechiae, % of subjects (Total E5501, N=64): (9.4) %
Petechiae, n of subjects (Total E5501, N=64): 6
Platelet count increased, % of subjects (Total E5501, N=64): (9.4) %
Platelet count increased, n of subjects (Total E5501, N=64): 6
Serious TEAE, % of subjects (Total E5501, N=64): (7.8) %
Serious TEAE, n of subjects (Total E5501, N=64): 5
Serious treatment-related TEAEs, % of subjects (Total E5501, N=64): (3.1) %
Serious treatment-related TEAEs, n of subjects (Total E5501, N=64): 2
Severe (grade 3-4) TEAEs, % of subjects (Total E5501, N=64): (25.0) %
Severe (grade 3-4) TEAEs, n of subjects (Total E5501, N=64): 16
Somnolence, % of subjects (Total E5501, N=64): (3.1) %
Somnolence, n of subjects (Total E5501, N=64): 2
Suspected drug-related AEs, % of subjects (Total E5501, N=64): (64.1) %
Suspected drug-related AEs, n of subjects (Total E5501, N=64): 41
Upper respiratory tract infection, % of subjects (Total E5501, N=64): (9.4) %
Upper respiratory tract infection, n of subjects (Total E5501, N=64): 6
Vomiting, % of subjects (Total E5501, N=64): (10.0) %
Vomiting, n of subjects (Total E5501, N=64): 7
Withdrawal due to TEAE, % of subjects (Total E5501, N=64): (10.9) %
Withdrawal due to TEAE, n of subjects (Total E5501, N=64): 7
Abdominal pain upper, % of subjects [3]: (15.0) %
Abdominal pain upper, n of subjects [3]: 3
Any Serious TEAE, n (%) of subjects [3]: 1 (5.0) n (%)
Any TEAE, % of subjects [3]: (100.0) %
Any TEAE, n of subjects [3]: 20
Arthralgia, % of subjects [3]: (20.0) %
Arthralgia, n of subjects [3]: 4
Asthenia, % of subjects [3]: (5.0) %
Asthenia, n of subjects [3]: 1
Back pain, % of subjects [3]: (15.0) %
Back pain, n of subjects [3]: 3
Constipation, n of subjects [3]: 0
Contusion, % of subjects [3]: (30.0) %
Contusion, n of subjects [3]: 6
Cough, % of subjects [3]: (10.0) %
Cough, n of subjects [3]: 2
Deaths, n of subjects [3]: 0
Diarrhoea, % of subjects [3]: (25.0) %
Diarrhoea, n of subjects [3]: 5
Dizziness, % of subjects [3]: (15.0) %
Dizziness, n of subjects [3]: 3
Dose interruption due to TEAE, % of subjects [3]: (10.0) %
Dose interruption due to TEAE, n of subjects [3]: 2
Dyspnoea, % of subjects [3]: (5.0) %
Dyspnoea, n of subjects [3]: 1
Ecchymosis, % of subjects [3]: (10.0) %
Ecchymosis, n of subjects [3]: 2
Epistaxis, % of subjects [3]: (40.0) %
Epistaxis, n of subjects [3]: 8
Fatigue, % of subjects [3]: (35.0) %
Fatigue, n of subjects [3]: 7
Gingival bleeding, % of subjects [3]: (20.0) %
Gingival bleeding, n of subjects [3]: 4
Headache, % of subjects [3]: (40.0) %
Headache, n of subjects [3]: 8
Insomnia, % of subjects [3]: (5.0) %
Insomnia, n of subjects [3]: 1
Migraine, % of subjects [3]: (10.0) %
Migraine, n of subjects [3]: 2
Mouth haemorrhage, % of subjects [3]: (10.0) %
Mouth haemorrhage, n of subjects [3]: 2
Nausea, % of subjects [3]: (20.0) %
Nausea, n of subjects [3]: 4
Pain in extremity, % of subjects [3]: (10.0) %
Pain in extremity, n of subjects [3]: 2
Petechiae, % of subjects [3]: (10.0) %
Petechiae, n of subjects [3]: 2
Platelet count increased, % of subjects [3]: (10.0) %
Platelet count increased, n of subjects [3]: 2
Serious TEAE Cerebrovascular accident, n (%) of subjects [3]: 1 (5.0) n (%)
Serious TEAE Chest pain, n (%) of subjects [3]: 1 (5.0) n (%)
Serious TEAE Diarrhoea, n (%) of subjects [3]: 1 (5.0) n (%)
Serious TEAE Haemorrhage intracranial, n (%) of subjects [3]: 0 n (%)
Serious TEAE Lethargy, n (%) of subjects [3]: 0 n (%)
Serious TEAE Mitral valve incompetence, n (%) of subjects [3]: 1 (5.0) n (%)
Serious TEAE Myocardial infarction, n (%) of subjects [3]: 0 n (%)
Serious TEAE Nausea, n (%) of subjects [3]: 0 n (%)
Serious TEAE Pelvic venous thrombosis, n (%) of subjects [3]: 0 n (%)
Serious TEAE Platelet count decreased, n (%) of subjects [3]: 0 n (%)
Serious TEAE Pneumonia, n (%) of subjects [3]: 0 n (%)
Serious TEAE Pyrexia, n (%) of subjects [3]: 1 (5.0) n (%)
Serious TEAE Thrombocytopenia, n (%) of subjects [3]: 0 n (%)
Serious TEAE Transient ischaemic attack, n (%) of subjects [3]: 0 n (%)
Serious TEAE Vomiting, n (%) of subjects [3]: 1 (5.0) n (%)
Serious TEAE, % of subjects [3]: (5.0) %
Serious TEAE, SOC Blood and lymphatic system disorders, n (%) of subjects [3]: 0 n (%)
Serious TEAE, SOC Cardiac disorders, n (%) of subjects [3]: 1 (5.0) n (%)
Serious TEAE, SOC Gastrointestinal disorders, n (%) of subjects [3]: 1 (5.0) n (%)
Serious TEAE, SOC General disorders and administration site conditions, n (%) of subjects [3]: 1 (5.0) n (%)
Serious TEAE, SOC Infections and infestations, n (%) of subjects [3]: 0 n (%)
Serious TEAE, SOC Investigations, n (%) of subjects [3]: 0 n (%)
Serious TEAE, SOC Nervous system disorders, n (%) of subjects [3]: 1 (5.0) n (%)
Serious TEAE, SOC Vascular disorders, n (%) of subjects [3]: 0 n (%)
Serious TEAE, n of subjects [3]: 1
Serious treatment-related TEAEs, n of subjects [3]: 0
Severe (grade 3-4) TEAEs, % of subjects [3]: (35.0) %
Severe (grade 3-4) TEAEs, n of subjects [3]: 7
Somnolence, % of subjects [3]: (10.0) %
Somnolence, n of subjects [3]: 2
Suspected drug-related AEs, % of subjects [3]: (65.0) %
Suspected drug-related AEs, n of subjects [3]: 13
Upper respiratory tract infection, % of subjects [3]: (15.0) %
Upper respiratory tract infection, n of subjects [3]: 3
Vomiting, % of subjects [3]: (20.0) %
Vomiting, n of subjects [3]: 4
Withdrawal due to TEAE, % of subjects [3]: (10.0) %
Withdrawal due to TEAE, n of subjects [3]: 2
treated subjects with thromboembolic events (both studies combined): approximately 6%
subjects with thromboembolic events (both studies combined, doses of 10 mg/day or higher): 4 subjects
subjects with TEAE possibly or probably treatment related (combined studies): 64.1%
subjects with TEAEs that led to interruption of study treatment (combined studies): 8 subjects
subjects with TEAEs that led to premature discontinuation of study treatment (combined studies): Seven
subjects who experienced one or more TEAEs (combined studies, 64 subjects): 96.9%
Epistaxis [4]: 23.4%
Fatigue [4]: 34.4%
Headache [4]: 32.8%
Vomiting [4]: 10.9%
arthralgia [4]: 14.1%
contusion [4]: 18.8%
diarrhea [4]: 14.1%
gingival bleeding [4]: 10.9%
serious TEAEs (combined studies, all): 16 cases
subjects reporting serious TEAEs (combined studies, all): Five
deaths (during the study): No deaths occurred
neoplastic events of interest (during this study): Three
serious TEAEs (lower ⅓ dose level group): 1 cases
subjects reporting serious TEAEs (lower ⅓ dose level group): 1 subjects
serious TEAEs (middle ⅓ dose level group): 9 cases
subjects reporting serious TEAEs (middle ⅓ dose level group): 3 subjects
serum ALT [5]: 210 U/L
serum AST [5]: 143 U/L
ALT [6]: 421 U/L
AST [6]: 431 U/L
serious TEAEs (upper ⅓ dose level group): 6 cases
subjects reporting serious TEAEs (upper ⅓ dose level group): 1 subjects
